Test results: paper PMC10918830, “Biosynthesis of Cytidine Diphosphate-6-D-Glucitol for the Capsular Polysaccharides of Campylobacter jejuni” (Biochemistry, 2024)

Columns and labels:
[1] = molecular target: T1, NAD(P)-dependent oxidoreductase HS5.17 (CDP-6-D-glucitol synthase) (Campylobacter jejuni, UniProt A0A0U3AP28); assay: X-ray crystal structure, […] Å; assay type: binding; settings: tag-free enzyme; ternary complex with NADP(H); pH 9.0
T1 construct: full-length, N-terminal His6 tag (pET-28a), E. coli expression; tag removed by TEV for the 8V4G crystals, tag kept for 8V4H; dimer

[2] = molecular target: T1, NAD(P)-dependent oxidoreductase HS5.17 (CDP-6-D-glucitol synthase); assay: X-ray crystal structure, […] Å; assay type: binding; settings: tagged enzyme; crystallized with NADP(H), which was not observed; pH 8.0
[3] = molecular target: the molecule itself; assay: crystal structure; tag-free enzyme crystallized with 5 mM CDP and 5 mM NADP(H), PEG 8000, hexyleneglycol, 100 mM CHES pH 9.0; 2.0 Å; dimer in the asymmetric unit
[4] = molecular target: the molecule itself; assay: crystal structure; tagged enzyme crystallized with 5 mM CDP-6-D-glucitol and 5 mM NADP(H), PEG 8000, 200 mM LiCl, 100 mM HEPPS pH 8.0; 2.2 Å; dimer in the asymmetric unit

Nc1ccn([C@@H]2O[C@H](COP(=O)(O)OP(=O)(O)O)[C@@H](O)[C@H]2O)c(=O)n1 [CDP]
X-ray crystal structure, 2.0 Å [1]: The first structure determined of the oxidoreductase was that in complex with NADP(H) and CDP

Nc1ccn([C@@H]2O[C@H](COP(=O)(O)OP(=O)(O)OC[C@@H](O)[C@@H](O)[C@H](O)[C@@H](O)CO)[C@@H](O)[C@H]2O)c(=O)n1 [compound 3, CDP-6-D-glucitol]
X-ray crystal structure, 2.2 Å [2]: The electron density was unambiguous for the CDP-6-D-glucitol ligands in both subunits

B1: NAD(P)-dependent oxidoreductase (HS5.17) from C. jejuni serotype HS:5, tag-free (enzyme, Campylobacter jejuni serotype HS:5)
chain: MNEILKKRLKLLKNNFGTHINKIANKKILITGANGYIGSILTLILHGNAKLYCLVRNKDKMIDRFQEICGDIDKIDIYEDLYKIQDKIDIVIHCAAPTQSDFFIENPIDTVDIIYTNTKNILDFSKKNNVEKIIFLSTMEIYGDVIGDNIVEDDIGKFSVTNIRNSYPLAKQISEFMVHSYSKKYSLSTAIVRLTQAIGPTAQINDNRVYMDFIRSAIKKSQITLFTKGETKREYIDVFDVATAIIFVMCEKKMFEIYNISNPNIFISIYDLAKTISAKLNVQVVFDLQRDTSQYLPSFSRRLNSKKIYQLGWTPLFDLNQSLDDMIKYIKEVNE
notes: putative NAD(P)-oxidoreductase HS5.17 of Campylobacter jejuni serotype HS:5 (ATCC 43433), UniProt A0A0U3AP28; gene synthesized and codon-optimized, in pET-28a(+) between NdeI and XhoI; electron density seen from Met 1 to Asn 334; His 0 left over from the purification tag; Crystallized with CDP and NADP(H) (PDB 8V4G); also called CDP-6-D-glucitol synthase; nucleotide sugar reductase; source: E. …
stoichiometry N [3]: 2

B2: NAD(P)-dependent oxidoreductase (HS5.17) from C. jejuni serotype HS:5, N-terminally histidine-tagged (enzyme, Campylobacter jejuni serotype HS:5)
chain: MNEILKKRLKLLKNNFGTHINKIANKKILITGANGYIGSILTLILHGNAKLYCLVRNKDKMIDRFQEICGDIDKIDIYEDLYKIQDKIDIVIHCAAPTQSDFFIENPIDTVDIIYTNTKNILDFSKKNNVEKIIFLSTMEIYGDVIGDNIVEDDIGKFSVTNIRNSYPLAKQISEFMVHSYSKKYSLSTAIVRLTQAIGPTAQINDNRVYMDFIRSAIKKSQITLFTKGETKREYIDVFDVATAIIFVMCEKKMFEIYNISNPNIFISIYDLAKTISAKLNVQVVFDLQRDTSQYLPSFSRRLNSKKIYQLGWTPLFDLNQSLDDMIKYIKEVNE
notes: putative NAD(P)-oxidoreductase HS5.17 of Campylobacter jejuni serotype HS:5 (ATCC 43433), UniProt A0A0U3AP28; gene synthesized and codon-optimized, in pET-28a(+) between NdeI and XhoI; electron density continuous from Met 1 to Asn 334, tag seen from Glu (-7) to Met 1 in Subunit B; Crystallized with CDP-6-D-glucitol (PDB 8V4H); also called CDP-6-D-glucitol synthase; nucleotide sugar reductase; …
stoichiometry N [4]: 2
